Here are results for one molecule from US8293280B2, “Method for treatment of HIV infection” (priority 2004, dated 2012).

The test concerns SIVmac239. It counts as in vivo, rhesus macaques (Macaca mulatta).

For `C[C@H](Cn1cnc2c(N)ncnc21)OCP(=O)(O)O` [PMPA, 9-R-(2-phophorylmethoxypropyl) adenine], the “viral loads after termination of PMPA therapy” value (Group 2: no further treatment, Group 3: extract 3.3 NU/kg s.c. daily for 60 days, initiated 2 days prior to termination of PMPA) was “viral loads rebounded soon after the discontinuation of PMPA therapy”. Further, the plasma viral loads (by day 28 of PMPA therapy, 30 mg/kg s.c. daily for 28 days, Groups 2 and 3) is given as 100 to 1000 viral copies per mL.
